pIC50: −log10 of the molar value. *1 amine or outer side, *2 acyl side, *3 side chain or, on linkers, in order; H or OH if unused. Where a SMILES comes first, the peptide text is derived from it. Bridges are numbered along the chain shown (N, C = ends). [ ]: non-standard residue; d: D form. The star is where a group is joined. ξ: configuration not given here. X10 = O=C(O)COc1ccc(C[C@H](CC(=O)C[*:2])C(=O)[*:1])cc1; Phe(3-CF3) = N[C@@H](Cc1cccc(C(F)(F)F)c1)C(=O)O; Phe(4-COOH) = N[C@@H](Cc1ccc(C(=O)O)cc1)C(=O)O; d(γGlu) = O=C(O)[C@@H](CCC(=O)[*:2])N[*:1]; Bip = N[C@@H](Cc1ccc(-c2ccccc2)cc1)C(=O)O; NH(CH2)14COOH = O=C(O)CCCCCCCCCCCCCCN*; γGlu = O=C(O)[C@H](CCC(=O)[*:2])N[*:1]; NH(CH2)12COOH = O=C(O)CCCCCCCCCCCCN*; Val(3-OH) = CC(C)(O)[C@H](N)C(=O)O; 2Thi = N[C@@H](Cc1cccs1)C(=O)O; Cha = N[C@@H](CC1CCCCC1)C(=O)O; Ile(3ξ) = CCC(C)[C@H](N)C(=O)O; X9 = NC(=O)CCCCCCCCCCCCCCN*; Carboxymethyl = O=C(O)C*; NMeA = CN[C@@H](C)C(=O)O; Dab = NCC[C@H](N)C(=O)O; AEEA = NCCOCCOCC(=O)O

T1 sequence (Q15116 25-288): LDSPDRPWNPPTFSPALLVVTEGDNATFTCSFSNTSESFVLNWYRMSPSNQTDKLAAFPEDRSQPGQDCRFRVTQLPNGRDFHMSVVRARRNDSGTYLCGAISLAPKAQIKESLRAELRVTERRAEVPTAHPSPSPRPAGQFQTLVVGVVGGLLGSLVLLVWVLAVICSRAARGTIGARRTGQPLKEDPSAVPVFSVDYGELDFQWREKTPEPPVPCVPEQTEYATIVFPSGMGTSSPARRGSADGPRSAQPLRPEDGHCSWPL

This assay addresses T1, PD-1/PD-L1 interaction (PE-labeled human PD-L1-Ig binding to Jurkat cell line over-expressing human PD-1) (Homo sapiens, UniProt Q15116).
T1 construct: expressed in transfected cells; host or cells: Jurkat
Nature of the assay: Jurkat-PD-1 Cell Binding High-Content Screening Assay (CBA). The following applies: PE-labeled PD-L1-Ig 20 nM final, Jurkat-hPD-1 cells; read-out: Jurkat HPD1 PDL1 IC50. The essentials:
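Cells 8×10^3/well, DMEM + 10% FCS; cpd 2 h, 37 °C; PE–PD-L1-Ig 20 nM final, 1 h; PFA fix + Hoechst 33342, 3× dPBS wash; high-content imager.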
Take `CC(C)C[C@H]1NC(=O)[C@H](C)N(C)C(=O)[C@H](CCC(N)=O)NC(=O)[C@H](Cc2ccc(-c3ccccc3)cc2)NC(=O)[C@H](Cc2ccc(OCC(=O)O)cc2)NC(=O)[C@H](Cc2cccc(C(F)(F)F)c2)NC(=O)[C@H](CC(=O)O)NC(=O)[C@H](Cc2ccc(OCC(=O)O)cc2)NC(=O)[C@H](Cc2cnc[nH]2)NC(=O)CSC[C@@H](C(=O)N[C@@H](CCN)C(=O)NCCCCCCCCCCCCC(=O)O)NC(=O)[C@H](CCC(=O)O)NC(=O)[C@H](C(C)(C)O)NC(=O)[C@H](CC2CCCCC2)NC(=O)[C@H](CCN)NC1=O` [Example 2630] ({CH2CO}-HY(Carboxymethyl)D[Phe(3-CF3)]Y(Carboxymethyl)[Bip]Q[NMeA][dL][Dab][Cha][Val(3-OH)]EC[Dab]-{NH(CH2)12COOH}; thioether N-14): the pIC50 was 8.02.
`CCC(C)[C@@H]1NC(=O)[C@H](Cc2ccc(-c3ccccc3)cc2)NC(=O)[C@H](C(C)C)NC(=O)[C@H](Cc2c[nH]c3ccccc23)NC(=O)[C@H](CC(=O)O)NC(=O)[C@H](Cc2ccc(C(=O)O)cc2)NC(=O)[C@H](Cc2cnc[nH]2)NC(=O)CSC[C@@H](C(=O)N[C@@H](CCN)C(=O)NCCOCCOCC(=O)NCCCCCCCCCCCCC(=O)O)NC(=O)[C@H](CCC(=O)O)NC(=O)[C@H](C(C)(C)O)NC(=O)[C@H](CC2CCCCC2)NC(=O)[C@H](CCN)NC(=O)[C@@H](CC(C)C)NC(=O)[C@H](C)N(C)C1=O` (stereo partly drawn) [Example 2631] ({CH2CO}-H[Phe(4-COOH)]DWV[Bip][Ile(3ξ)][NMeA][dL][Dab][Cha][Val(3-OH)]EC[Dab][AEEA]-{NH(CH2)12COOH}; thioether N-14): the negative logarithm of the IC50 (pIC50) was 7.81.
As for `CCC(C)[C@@H]1NC(=O)[C@H](Cc2ccc(-c3ccccc3)cc2)NC(=O)[C@H](C(C)C)NC(=O)[C@H](Cc2c[nH]c3ccccc23)NC(=O)[C@H](CC(=O)O)NC(=O)[C@H](Cc2ccc(C(=O)O)cc2)NC(=O)[C@H](Cc2cnc[nH]2)NC(=O)CSC[C@@H](C(=O)N[C@@H](CCN)C(=O)N[C@@H](CCC(=O)NCCCCCCCCCCCCC(=O)O)C(=O)O)NC(=O)[C@H](CCC(=O)O)NC(=O)[C@H](C(C)(C)O)NC(=O)[C@H](CC2CCCCC2)NC(=O)[C@H](CCN)NC(=O)[C@@H](CC(C)C)NC(=O)[C@H](C)N(C)C1=O` (stereo partly drawn) [Example 2632] ({CH2CO}-H[Phe(4-COOH)]DWV[Bip][Ile(3ξ)][NMeA][dL][Dab][Cha][Val(3-OH)]EC[Dab]E(NH(CH2)12COOH)-OH; thioether N-14), the pIC50 was 7.60.
Turning to `CCC(C)[C@@H]1NC(=O)[C@H](Cc2ccc(-c3ccccc3)cc2)NC(=O)[C@H](C(C)C)NC(=O)[C@H](Cc2c[nH]c3ccccc23)NC(=O)[C@H](CC(=O)O)NC(=O)[C@H](Cc2ccc(C(=O)O)cc2)NC(=O)[C@H](Cc2cnc[nH]2)NC(=O)CSC[C@@H](C(=O)N[C@@H](CCN)C(=O)NCCOCCOCC(=O)N[C@@H](CCC(=O)NCCCCCCCCCCCCCCC(=O)O)C(=O)O)NC(=O)[C@H](CCC(=O)O)NC(=O)[C@H](C(C)(C)O)NC(=O)[C@H](CC2CCCCC2)NC(=O)[C@H](CCN)NC(=O)[C@@H](CC(C)C)NC(=O)[C@H](C)N(C)C1=O` (stereo partly drawn) [Example 2633] ({CH2CO}-H[Phe(4-COOH)]DWV[Bip][Ile(3ξ)][NMeA][dL][Dab][Cha][Val(3-OH)]EC[Dab][AEEA]E(NH(CH2)14COOH)-OH; thioether N-14), the negative-log IC50 (pIC50) was 6.68.
The value for `CCC(C)[C@@H]1NC(=O)[C@H](Cc2ccc(-c3ccccc3)cc2)NC(=O)[C@H](C(C)C)NC(=O)[C@H](Cc2c[nH]c3ccccc23)NC(=O)[C@H](CC(=O)O)NC(=O)[C@H](Cc2ccc(C(=O)O)cc2)NC(=O)[C@H](Cc2cnc[nH]2)NC(=O)CSC[C@@H](C(=O)N[C@@H](CCN)C(=O)NCCOCCOCC(=O)N[C@@H](CCC(=O)N[C@H](CCC(=O)NCCCCCCCCCCCCCCC(=O)O)C(=O)O)C(=O)O)NC(=O)[C@H](CCC(=O)O)NC(=O)[C@H](C(C)(C)O)NC(=O)[C@H](CC2CCCCC2)NC(=O)[C@H](CCN)NC(=O)[C@@H](CC(C)C)NC(=O)[C@H](C)N(C)C1=O` (stereo partly drawn) [Example 2634] ({CH2CO}-H[Phe(4-COOH)]DWV[Bip][Ile(3ξ)][NMeA][dL][Dab][Cha][Val(3-OH)]EC[Dab][AEEA][γGlu][d(γGlu)]-{NH(CH2)14COOH}; thioether N-14) was 6.73; that for `CCC(C)[C@@H]1NC(=O)[C@H](Cc2ccc(-c3ccccc3)cc2)NC(=O)[C@H](C(C)C)NC(=O)[C@H](Cc2c[nH]c3ccccc23)NC(=O)[C@H](CC(=O)O)NC(=O)[C@H](Cc2ccc(C(=O)O)cc2)NC(=O)[C@H](Cc2cnc[nH]2)NC(=O)CSC[C@@H](C(=O)N[C@@H](CCN)C(=O)NCCOCCOCC(=O)N[C@@H](CCC(=O)NCCOCCOCC(=O)NCCCCCCCCCCCCCCC(=O)O)C(=O)O)NC(=O)[C@H](CCC(=O)O)NC(=O)[C@H](C(C)(C)O)NC(=O)[C@H](CC2CCCCC2)NC(=O)[C@H](CCN)NC(=O)[C@@H](CC(C)C)NC(=O)[C@H](C)N(C)C1=O` (stereo partly drawn) [Example 2635] ({CH2CO}-H[Phe(4-COOH)]DWV[Bip][Ile(3ξ)][NMeA][dL][Dab][Cha][Val(3-OH)]EC[Dab][AEEA][γGlu][AEEA]-{NH(CH2)14COOH}; thioether N-14) was 6.98; that for `CC(C)C[C@H]1NC(=O)[C@H](C)N(C)C(=O)[C@H](Cc2ccc(C(=O)O)cc2)NC(=O)[C@H](Cc2ccc(-c3ccccc3)cc2)NC(=O)[C@H](Cc2ccc(OCC(=O)O)cc2)NC(=O)[C@H](Cc2cccc(C(F)(F)F)c2)NC(=O)[C@H](CC(=O)O)NC(=O)[C@H](Cc2ccc(OCC(=O)O)cc2)NC(=O)[C@H](Cc2cccs2)NC(=O)CSC[C@@H](C(=O)N[C@@H](CCN)C(=O)NCCCCCCCCCCCCC(=O)O)NC(=O)[C@H](Cc2cnc[nH]2)NC(=O)[C@H](C(C)(C)O)NC(=O)[C@H](CC2CCCCC2)NC(=O)[C@H](CCN)NC1=O` [Example 2636] ({CH2CO}-[2Thi]Y(Carboxymethyl)D[Phe(3-CF3)]Y(Carboxymethyl)[Bip][Phe(4-COOH)][NMeA][dL][Dab][Cha][Val(3-OH)]HC[Dab]-{NH(CH2)12COOH}; thioether N-14) was 6.87.
For `CC(=O)NCCCC[C@@H]1NC(=O)[C@H](C(C)(C)O)NC(=O)[C@H](CC2CCCCC2)NC(=O)[C@H](CCN)NC(=O)[C@@H](CC(C)C)NC(=O)[C@H](C)N(C)C(=O)[C@H](CCC(N)=O)NC(=O)[C@H](Cc2ccc(-c3ccccc3)cc2)NC(=O)[C@H](Cc2ccc(C(=O)O)cc2)NC(=O)[C@H](Cc2cccc(C(F)(F)F)c2)NC(=O)[C@H](CC(=O)O)NC(=O)[C@H](Cc2ccc(OCC(=O)O)cc2)NC(=O)[C@H](Cc2ccc(OCC(=O)O)cc2)CC(=O)CSC[C@@H](C(=O)N[C@@H](CCN)C(=O)NCCOCCOCC(=O)N[C@@H](CC(=O)NCCCCCCCCCCCCCCC(N)=O)C(=O)O)NC1=O` [Example 2637] (Y(Carboxymethyl)D[Phe(3-CF3)][Phe(4-COOH)][Bip]Q[NMeA][dL][Dab][Cha][Val(3-OH)]K(Ac)C[Dab][AEEA]D(X9)-OH; linker N-13 via X10), the pIC50 is 7.62.
As to `CC(=O)NCCCC[C@@H]1NC(=O)[C@H](C(C)(C)O)NC(=O)[C@H](CC2CCCCC2)NC(=O)[C@H](CCN)NC(=O)[C@@H](CC(C)C)NC(=O)[C@H](C)N(C)C(=O)[C@H](CCCNC(=N)N)NC(=O)[C@H](Cc2ccc(-c3ccccc3)cc2)NC(=O)[C@H](Cc2ccc(C(=O)O)cc2)NC(=O)[C@H](Cc2cccc(C(F)(F)F)c2)NC(=O)[C@H](CC(=O)O)NC(=O)[C@H](Cc2ccc(OCC(=O)O)cc2)NC(=O)[C@H](Cc2ccc(OCC(=O)O)cc2)NC(=O)CSC[C@@H](C(=O)N[C@@H](CCN)C(=O)NCCCCCCCCCCCCC(=O)O)NC1=O` [Example 2638] ({CH2CO}-Y(Carboxymethyl)Y(Carboxymethyl)D[Phe(3-CF3)][Phe(4-COOH)][Bip]R[NMeA][dL][Dab][Cha][Val(3-OH)]K(Ac)C[Dab]-{NH(CH2)12COOH}; thioether N-14), the negative-log IC50 (pIC50) is 8.04.
Consider `CC(=O)NCCCC[C@@H]1NC(=O)[C@H](C(C)(C)O)NC(=O)[C@H](CC2CCCCC2)NC(=O)[C@H](CCN)NC(=O)[C@@H](CC(C)C)NC(=O)[C@H](C)N(C)C(=O)[C@H](CCCNC(=N)N)NC(=O)[C@H](Cc2ccc(-c3ccccc3)cc2)NC(=O)[C@H](Cc2ccc(C(=O)O)cc2)NC(=O)[C@H](Cc2cccc(C(F)(F)F)c2)NC(=O)[C@H](CC(=O)O)NC(=O)[C@H](Cc2ccc(OCC(=O)O)cc2)NC(=O)[C@H](Cc2ccc(OCC(=O)O)cc2)NC(=O)CSC[C@@H](C(=O)N[C@@H](CCN)C(=O)NCCOCCOCC(=O)NCCCCCCCCCCCCC(=O)O)NC1=O` [Example 2639] ({CH2CO}-Y(Carboxymethyl)Y(Carboxymethyl)D[Phe(3-CF3)][Phe(4-COOH)][Bip]R[NMeA][dL][Dab][Cha][Val(3-OH)]K(Ac)C[Dab][AEEA]-{NH(CH2)12COOH}; thioether N-14), for which the negative logarithm of the IC50 (pIC50) was 7.77.
As to `CC(=O)NCCCC[C@@H]1NC(=O)[C@H](C(C)(C)O)NC(=O)[C@H](CC2CCCCC2)NC(=O)[C@H](CCN)NC(=O)[C@@H](CC(C)C)NC(=O)[C@H](C)N(C)C(=O)[C@H](CCC(=O)O)NC(=O)[C@H](Cc2ccc(-c3ccccc3)cc2)NC(=O)[C@H](Cc2ccc(C(=O)O)cc2)NC(=O)[C@H](Cc2cccc(C(F)(F)F)c2)NC(=O)[C@H](CC(=O)O)NC(=O)[C@H](Cc2ccc(OCC(=O)O)cc2)NC(=O)[C@H](Cc2ccc(OCC(=O)O)cc2)NC(=O)CSC[C@@H](C(=O)N[C@@H](CCN)C(=O)NCCOCCOCC(=O)NCCCCCCCCCCCCC(=O)O)NC1=O` [Example 2640] ({CH2CO}-Y(Carboxymethyl)Y(Carboxymethyl)D[Phe(3-CF3)][Phe(4-COOH)][Bip]E[NMeA][dL][Dab][Cha][Val(3-OH)]K(Ac)C[Dab][AEEA]-{NH(CH2)12COOH}; thioether N-14), the pIC50 is 7.40.

By pIC50 is commonly meant the negative decadic logarithm of the IC50, by convention in mol/L.

The values above are taken from US20260070945A1, “MACROCYCLIC IMMUNOMODULATORS” (Bristol-Myers Squibb Company, priority 2022, published 2026).
